Data published in publication PMC6222323, “Exploiting the Chalcone Scaffold to Develop Multifunctional Agents for Alzheimer’s Disease” (Molecules : A Journal of Synthetic Chemistry and Natural …, 2018).

Key:
[1] = molecular target: human recombinant AChE (hAChE) (Homo sapiens, UniProt P22303); assay: biochemical; type: biochemical; settings: for SI: selectivity index for AChE: calculated as IC50 hBuChE/hAChE ratio; for IC50: read-out: IC50 (µM) ± SEM hAChE
[2] = molecular target: BuChE from human serum (hBuChE) (Homo sapiens, UniProt P06276); assay: biochemical; type: biochemical; settings: for IC50: read-out: IC50 (µM) ± SEM hBuChE
Chain of BuChE from human serum (hBuChE) (P06276 29-602): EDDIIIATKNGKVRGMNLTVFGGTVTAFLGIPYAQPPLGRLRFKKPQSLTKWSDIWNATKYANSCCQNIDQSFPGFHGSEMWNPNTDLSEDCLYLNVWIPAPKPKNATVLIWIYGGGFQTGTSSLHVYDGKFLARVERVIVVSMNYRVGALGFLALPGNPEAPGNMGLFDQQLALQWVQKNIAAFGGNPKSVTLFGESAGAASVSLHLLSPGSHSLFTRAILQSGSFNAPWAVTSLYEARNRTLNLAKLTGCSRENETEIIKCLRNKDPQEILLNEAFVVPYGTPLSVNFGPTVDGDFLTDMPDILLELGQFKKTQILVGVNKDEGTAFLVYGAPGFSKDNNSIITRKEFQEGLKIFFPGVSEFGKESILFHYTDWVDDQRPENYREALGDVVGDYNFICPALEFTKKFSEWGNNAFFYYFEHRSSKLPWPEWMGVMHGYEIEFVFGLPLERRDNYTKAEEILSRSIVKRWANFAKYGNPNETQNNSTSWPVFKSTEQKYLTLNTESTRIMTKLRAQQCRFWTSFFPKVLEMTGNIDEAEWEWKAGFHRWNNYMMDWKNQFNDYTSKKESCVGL

SH-SY5Y cells [3] = type: cell-based; settings: 24 h treatment, 2.5–80 µM tested, MTT assay, SH-SY5Y cells (data not shown)
SH-SY5Y cells [4] = assay: Antioxidant activity, ROS formation induced by t-BuOOH (H2DCF-DA probe); type: cell-based; settings: Homo sapiens, 1.25 µM compound for 24 h, then t-BuOOH 100 µM for 30 min, read-out: inhibition percentage in ROS formation induced by t-BuOOH
SH-SY5Y cells [5] = assay: Glutathione (GSH) levels (MCB probe); type: cell-based, human; settings: 1.25 µM compound for 24 h, vs. control
SH-SY5Y cells [6] = assay: Neuroprotective activity toward Aβ1–42 oligomers, MTT formazan exocytosis assay; type: cell-based, human; settings: 1.25 µM compound with OAβ1–42 10 µM for 4 h
[7] = human recombinant AChE, 20 min preincubation at 37 °C, pH 8.0, n.a. = not active, inhibition lower than 15% at the highest tested concentration
[8] = BuChE from human serum, 20 min preincubation at 37 °C, pH 8.0, n.a. = not active, inhibition lower than 15% at the highest tested concentration

Chain of human recombinant AChE (hAChE) (P22303 32-614): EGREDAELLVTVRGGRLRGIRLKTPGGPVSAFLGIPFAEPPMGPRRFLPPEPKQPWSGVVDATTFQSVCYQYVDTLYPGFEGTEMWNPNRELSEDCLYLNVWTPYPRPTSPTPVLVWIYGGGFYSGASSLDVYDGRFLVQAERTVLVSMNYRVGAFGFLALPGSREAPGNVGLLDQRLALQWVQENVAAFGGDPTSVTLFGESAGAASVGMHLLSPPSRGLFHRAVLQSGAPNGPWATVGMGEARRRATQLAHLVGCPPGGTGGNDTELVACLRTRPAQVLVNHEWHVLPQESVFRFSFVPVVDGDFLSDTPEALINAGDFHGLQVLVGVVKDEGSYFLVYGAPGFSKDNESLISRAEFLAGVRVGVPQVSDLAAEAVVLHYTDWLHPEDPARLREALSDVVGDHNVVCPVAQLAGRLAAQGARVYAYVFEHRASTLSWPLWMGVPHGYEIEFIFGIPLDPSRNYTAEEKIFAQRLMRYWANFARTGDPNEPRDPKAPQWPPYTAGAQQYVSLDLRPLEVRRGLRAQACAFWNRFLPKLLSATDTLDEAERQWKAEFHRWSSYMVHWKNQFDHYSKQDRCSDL

Row | SMILES | SI: selectivity index for AChE [1] | IC50 [1, 7] [µM] | IC50 [2, 8] [µM] | other results
1 | CCN(CC)Cc1ccc(C(=O)C=Cc2ccc(OCCCCCCCN(C)Cc3ccccc3)cc2)cc1 [compound 1, 3-(4-((7-(Benzyl(methyl)amino)heptyl)oxy)phenyl)-1-(4-((diethylamino)methyl)phenyl)prop-2-en-1-one] | 3.14 | 2.81 ± 0.29 | 8.83 ± 0.58 | fold increase in hAChE inhibitory activity ([1]; methylendiethylamino group in place of the methoxy group (compounds 2, 12)): 35 fold
2 | COc1ccc(C(=O)C=Cc2ccc(OCCCCCCCN(C)Cc3ccccc3)cc2)cc1 [compound 2, 3-(4-((7-(Benzyl(methyl)amino)heptyl)oxy)phenyl)-1-(4-methoxyphenyl)prop-2-en-1-one] | 0.03 | 98.5 ± 8.8 | 2.85 ± 0.7 | concentrations that did not affect neuronal viability (SH-SY5Y cells [3]): up to 2.5 µM; inhibition at 1.25 µM (SH-SY5Y cells [4]): 16%; effect on GSH levels (SH-SY5Y cells [5]): decreased GSH basal levels; neuroprotective activity toward OAβ1–42 induced toxicity (neuronal viability) (SH-SY5Y cells [6]): reinforced the neurotoxic effects
3 | CCN(CC)CCOc1ccc(C(=O)C=Cc2ccc(OCCCCCCCN(C)Cc3ccccc3)cc2)cc1 [compound 3, 3-(4-((7-(Benzyl(methyl)amino)heptyl)oxy)phenyl)-1-(4-(2-(diethylamino)ethoxy)phenyl)-prop-2-en-1-one] | 28.4 | 0.7 ± 0.09 | 19.9 ± 5.5 | –
4 | CCN(CC)CCCOc1ccc(C(=O)C=Cc2ccc(OCCCCCCCN(C)Cc3ccccc3)cc2)cc1 [compound 4, 3-(4-((7-(Benzyl(methyl)amino)heptyl)oxy)phenyl)-1-(4-(3-(diethylamino)propoxy)phenyl)-prop-2-en-1-one] | 2.6 | 0.92 ± 0.07 | 2.38 ± 0.05 | concentrations that did not affect neuronal viability (SH-SY5Y cells [3]): up to 2.5 µM; inhibition at 1.25 µM (SH-SY5Y cells [4]): 27%; effect on GSH levels (SH-SY5Y cells [5]): significantly increased GSH levels; neuroprotective activity toward OAβ1–42 induced toxicity (neuronal viability) (SH-SY5Y cells [6]): partially counteracted the neurotoxic effects
5 | CCN(CC)CCCCOc1ccc(C(=O)C=Cc2ccc(OCCCCCCCN(C)Cc3ccccc3)cc2)cc1 [compound 5, 3-(4-((7-(Benzyl(methyl)amino)heptyl)oxy)phenyl)-1-(4-(4-(diethylamino)butoxy)phenyl)prop-2-en-1-one] | 3.5 | 1.06 ± 0.08 | 3.7 ± 0.08 | –
6 | CN(CCCCCCCOc1ccc(C=CC(=O)c2ccc(OCCN3CCOCC3)cc2)cc1)Cc1ccccc1 [compound 6, 3-(4-((7-(Benzyl(methyl)amino)heptyl)oxy)phenyl)-1-(4-(2-morpholinoethoxy)phenyl)prop-2-en-1-one] | 0.021 | 511 ± 37 | 11 ± 0.5 | fold worse hAChE inhibition than compound 7 ([1]; morpholino vs piperidine derivative): about 500 fold
7 | CN(CCCCCCCOc1ccc(C=CC(=O)c2ccc(OCCN3CCCCC3)cc2)cc1)Cc1ccccc1 [compound 7, 3-(4-((7-(Benzyl(methyl)amino)heptyl)oxy)phenyl)-1-(4-(2-(piperidin-1-yl)ethoxy)phenyl)prop-2-en-1-one] | 15.8 | 1.25 ± 0.06 | 19.7 ± 0.6 | –
8 | CN(CCCCCCCOc1ccc(C=CC(=O)c2ccc(OCCN3CCc4ccccc4C3)cc2)cc1)Cc1ccccc1 [compound 8, 3-(4-((7-(Benzyl(methyl)amino)heptyl)oxy)phenyl)-1-(4-(2-(3,4-dihydroisoquinolin-2(1H)-yl)ethoxy)phenyl)prop-2-en-1-one] | 0.23 | 16.5 ± 2.6 | 3.87 ± 0.3 | –
9 | CN(CCCCCCCOc1ccc(C=CC(=O)c2ccc(OCCN3CCC(n4c(=O)[nH]c5ccccc54)CC3)cc2)cc1)Cc1ccccc1 [compound 9, 1-(1-(2-(4-(3-(4-((7-(Benzyl(methyl)amino)heptyl)oxy)phenyl)acryloyl)phenoxy)ethyl)-piperidin-4-yl)-1,3-dihydro-2H-benzo[d]imidazol-2-one] | 0.29 | 13.5 ± 2.3 | 3.93 ± 0.2 | –
10 | CN(CCCCCCCOc1ccc(C=CC(=O)c2ccc(OCCN3CCC(c4ccccc4)CC3)cc2)cc1)Cc1ccccc1 [compound 10, 3-(4-((7-(Benzyl(methyl)amino)heptyl)oxy)phenyl)-1-(4-(2-(4-phenylpiperidin-1-yl)ethoxy)-phenyl)prop-2-en-1-one] | – | – | – | IC50 (µM) ± SEM hAChE [1, 7]: inactive; IC50 (µM) ± SEM hBuChE [2, 8]: inactive
11 | CN(CCCCCCCOc1ccc(C=CC(=O)c2ccc(OCCN3CCC(O)(c4ccc(Cl)cc4)CC3)cc2)cc1)Cc1ccccc1 [compound 11, 3-(4-((7-(Benzyl(methyl)amino)heptyl)oxy)phenyl)-1-(4-(2-(4-(4-chlorophenyl)-4-hydroxypiperidin-1-yl)ethoxy)phenyl)prop-2-en-1-one] | – | – | – | IC50 (µM) ± SEM hAChE ([1]; pH 8): inactive; IC50 (µM) ± SEM hBuChE ([2]; pH 8): inactive
12 | COc1cccc(C(=O)C=Cc2ccc(OCCCCCCCN(C)Cc3ccccc3)cc2)c1 [compound 12, 3-(4-((7-(Benzyl(methyl)amino)heptyl)oxy)phenyl)-1-(3-methoxyphenyl)prop-2-en-1-one] | 0.08 | 105 ± 17 | 8.58 ± 0.35 | –
13 | CCN(CC)CCOc1cccc(C(=O)C=Cc2ccc(OCCCCCCCN(C)Cc3ccccc3)cc2)c1 [compound 13, 3-(4-((7-(Benzyl(methyl)amino)heptyl)oxy)phenyl)-1-(3-(2-(diethylamino)ethoxy)phenyl)-prop-2-en-1-one] | 0.62 | 1.47 ± 0.11 | 0.92 ± 0.04 | –
14 | CCN(CC)CCCOc1cccc(C(=O)C=Cc2ccc(OCCCCCCCN(C)Cc3ccccc3)cc2)c1 [compound 14, 3-(4-((7-(Benzyl(methyl)amino)heptyl)oxy)phenyl)-1-(3-(3-(diethylamino)propoxy)phenyl)-prop-2-en-1-one] | 0.31 | 5.78 ± 0.67 | 1.82 ± 0.05 | –
15 | CCN(CC)CCOc1ccc(C(=O)CCc2ccc(OCCCCCCCN(C)Cc3ccccc3)cc2)cc1 [compound 16, 3-(4-((7-(Benzyl(methyl)amino)heptyl)oxy)phenyl)-1-(4-(2-(diethylamino)ethoxy)phenyl)-propan-1-one] | 3.25 | 6.21 ± 0.32 | 20.2 ± 1.7 | –
16 | CCN(CC)CCCOc1ccc(C(=O)CCc2ccc(OCCCCCCCN(C)Cc3ccccc3)cc2)cc1 [compound 17, 3-(4-((7-(Benzyl(methyl)amino)heptyl)oxy)phenyl)-1-(4-(3-(diethylamino)propoxy)phenyl)-propan-1-one] | 3.04 | 1.66 ± 0.09 | 5.04 ± 0.3 | concentrations that did not affect neuronal viability (SH-SY5Y cells [3]): up to 2.5 µM; inhibition at 1.25 µM (SH-SY5Y cells [4]): 23%; effect on GSH levels (SH-SY5Y cells [5]): significantly increased GSH levels; neuroprotective activity toward OAβ1–42 induced toxicity (neuronal viability) (SH-SY5Y cells [6]): No neuroprotective effect
17 | CCN(CC)CCCCOc1ccc(C(=O)CCc2ccc(OCCCCCCCN(C)Cc3ccccc3)cc2)cc1 [compound 18, 3-(4-((7-(Benzyl(methyl)amino)heptyl)oxy)phenyl)-1-(4-(4-(diethylamino)butoxy)phenyl)-propan-1-one] | 5.04 | 2.46 ± 0.11 | 12.4 ± 2.4 | –
